Measurements taken from article PMC9259647 (Scientific Reports, 2022).
Like-named read-outs stand apart in the source and are kept apart here.

What was measured:
HXYN2 [1] = biological target: T1, HXYN2 (Humicola insolens, UniProt P55334); experiment: Effect of phenolic compounds on HXYN2 activity (DNS xylanase assay); assay type: biochemical, Humicola grisea var. thermoidea; conditions: for activating effect on HXYN2 activity: after 0 and 24 h of incubation
T1 construct: made in house; host or cells: Pichia pastoris GS115 (vector pHIL-D2), purified from culture supernatant

[2] = tested on: GH11 xylanase from Aspergillus tamarii; conditions: birchwood xylan as a substrate; cited from earlier work
[3] = tested on: GH10 xylanase from Penicillium chrysogenum; design: method as in PMID 30654038; conditions: oat spelt xylan as a substrate; cited from earlier work
[4] = tested on: fungal cellulases and β-glucosidase; design: method as in PMID 22112771; conditions: cited from earlier work
HXYN2 [5] = experiment: CD thermal unfolding of HXYN2 in the presence of FA; design: species or system Humicola grisea var. thermoidea; conditions: pH 6.0, FA 60 µM; 63.5 °C without FA
Method: Thermostability assays of HXYN2 were performed at pH 4.0, 6.0, 7.0 and 9.0 at 218 nm, corresponding to the structured region of β-sheet, with temperature ranging from 25 to 95 °C and data collection of 0.2 °C/min. In addition, the CD spectra were recorded at a step size of 0.2 nm at intervals of 10 °C using the same parameters described above. Thermal denaturation curves were plotted considering the molar ellipticity values (θ) versus temperature. The unfolded status of the protein (Fu) was calculated by Eq. (6):6 Fu=yN-y/yN-yU where, yN and yU represent the values of y (into molar ellipticity) characteristic of the folded and unfolded states, respectively. The normalized unfolding curves were adjusted using the Boltzmann equation and the Origin 8.1 software (OriginLab Corporation, Northampton, MA, USA) from which the melting temperature (Tm) was estimated.
The effect of FA on the secondary structure content of HXYN2 was also investigated by CD. Assays were performed with protein at concentration of 0.15 mg/mL in 5 mM Bis–Tris pH 6.0 and FA at concentration of 60 µM. A quartz cuvette of 0.05 cm path length was used to record the Far-UV CD spectra in the range from 260 to 190 nm at 25 °C. Thermostability assays of HXYN2 in the presence of FA at pH 6.0 were also performed, using the same parameters described above.

HXYN2 [6] = biological target: T1, HXYN2; experiment: Isothermal titration calorimetry of HXYN2 with FA; assay type: binding, Humicola grisea var. thermoidea
Method: An initial spacing setting of 500 s and an initial injection of 2 µL were employed. The following 12 injections of 5 µL were performed with an interval spacing of 600 s. The final 16 injections comprised 10 µL, with an interval spacing of 600 s.
The heat released after each injection was calculated from the raw data by integration of the peaks after subtraction of the baseline. The binding isotherms were fitted to different models using the software ORIGIN v7 (OriginLab, Northampton, MA, USA) provided by MicroCal. The best fit was determined using only two parameters, namely the binding constant (K) and enthalpy (H) on each site, following selction of the total number of sites. […] Changes in Gibbs free energy (ΔG) were calculated by Eq. (3):3 ΔG=-RTlnKa=ΔH-TΔS

HXYN2 [7] = biological target: T1, HXYN2; experiment: Fluorescence quenching of HXYN2 by FA; assay type: binding, Humicola grisea var. thermoidea; conditions: range, acidic to basic pH
Method: HXYN2 in complex with FA was investigated by fluorescence quenching as a function of pH. Trp and Trp-Tyr emission measurements were performed at 25 °C, in triplicate, after excitation at 295 nm and 275 nm, respectively. Protein fluorescence emission was recorded in the range of 300 to 450 nm. A path length quartz cuvette of 1 cm and excitation and emission slit width of 5 nm were employed. Data intervals of 1 nm, gain medium, a response time of 2 s, and a scanning speed of 50 nm/min were used with two averaged spectra accumulations. Fluorescence quenching of 0.43 µM HXYN2 with 0 to 23.68 µM FA in 95% ethanol and 0.05 M of sodium acetate buffer at pH 4.0 and 0.05 M of Tris–HCl at pH 7.0 and pH 9.0 was performed using a Jasco ATS-443 Automatic titration (Jasco Analytical Instrument, Tokyo, Japan). The fluorescence intensity background and dilution were corrected. The Stern–Volmer linear regression (Eq. 4) of the relative […] of fluorescence intensity at 334 nm (F/F0) versus FA concentration was used to describe the fluorescence quenching of Trp accessible to the quencher[52]:4 F0/F=1+Kq∗τ0Q=1+KSVQ where F and F0 are the fluorescence intensities at 334 nm, in the presence and absence of FA, respectively, Q is the concentration of the quencher, and Ksv is the Stern–Volmer constant. […]

HXYN2 [8] = tested on: HXYN2

T1 sequence (P55334 20-227): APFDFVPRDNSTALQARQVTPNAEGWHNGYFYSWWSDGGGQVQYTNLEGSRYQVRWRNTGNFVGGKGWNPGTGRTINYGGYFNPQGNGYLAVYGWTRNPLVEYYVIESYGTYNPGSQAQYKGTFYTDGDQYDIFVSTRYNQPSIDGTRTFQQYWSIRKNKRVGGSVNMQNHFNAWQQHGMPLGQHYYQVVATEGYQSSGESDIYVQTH

Compound: O=C(O)/C=C/c1ccccc1 [trans-cinnamic acid]
- activating effect on HXYN2 activity (HXYN2 [1]; 1 mg/mL): 20–75%

Compound: O=C(O)c1cc(O)c(O)c(O)c1 [gallic acid]
- activating effect on HXYN2 activity (HXYN2 [1]; 1 mg/mL): 20–75%

Compound: O=C(O)/C=C/c1ccc(O)cc1 [p-coumaric acid]
- activating effect on HXYN2 activity (HXYN2 [1]; 1 mg/mL): 20–75%

Compound: O=C(O)c1ccc(O)cc1 [4-hydroxybenzoic acid]
- activating effect on HXYN2 activity (HXYN2 [1]; 1 mg/mL): 20–75%

Compound: tannic acid
- reduction in HXYN2 activity (HXYN2 [1]; 1 mg/mL, pre-incubation 0 h): 26%
- reduction in HXYN2 activity (HXYN2 [1]; 1 mg/mL, pre-incubation 24 h): 59%
- deactivating effect on HXYN2 (HXYN2 [1]; after 24 h of incubation): ~59%
- increase in the activity [2]: 12%
- inhibitory effect [3]: 17%
- inhibition [4]: up to 80%

Compound: COc1cc(C=O)cc(OC)c1O [syringaldehyde]
- activating effect on HXYN2 activity (HXYN2 [1]; 1 mg/mL): 20–75%

Compound: COc1cc(C=O)ccc1O [vanillin]
- activating effect on HXYN2 activity (HXYN2 [1]; 1 mg/mL): 20–75%

Compound: COc1cc(/C=C/C(=O)O)ccc1O [FA, 3-(4-hydroxy-3-methoxy-phenyl-prop-2-enoic)]
- Tm of HXYN2 in the presence of FA (HXYN2 [5]): 54.1 °C
- increase in enzymatic activity of HXYN2 in comparison to the control (HXYN2 [1]; 1 mg/mL, 0 and 24 h of incubation, beechwood xylan): 60–75%
- activation at 1000 µg/mL (HXYN2 [1]; 24 h, read-out: activating effect on HXYN2, after 24 h of incubation): ~75%
- activation at 1000 µg/mL (HXYN2 [1]; read-out: activating effect on HXYN2 activity, 1 mg/mL, after 0 and 24 h of incubation): 20 to 75%
- activation at 1000 µg/mL (HXYN2 [1]; read-out: increase in enzymatic activity of HXYN2 in comparison to the control, 1 mg/mL, 0 and 24 h of incubation, beechwood xylan): 75%
- Kd (HXYN2 [6]; Kd, binding sites 2 and 4): ~2.5 µM
- K (binding constant) (HXYN2 [6]; binding site 1, pH 6.0, 298 °K): 14.70 10^6 M^-1
- binding constant (HXYN2 [6]; binding sites 2 and 4): ~ 0.4 × 10^6 M^−1
- Kd (HXYN2 [6]; dissociation constant (Kd), range over four sites): 0.068 to 2.32 µM
- Gibbs free energy (HXYN2 [6]; range over four sites): −5.5 to −10.0 kcal/mol
- bimolecular quenching constant, Kq (HXYN2 [7]): 3.2e+11 to 6.5e+11 M⁻¹ s⁻¹
- Vmax (HXYN2 [8]; FA 0.25 mg/mL): 56.71 ± 1.11 µmol/min
- kcat (HXYN2 [8]; FA 0.25 mg/mL): 2.363 s⁻¹
- Vmax (HXYN2 [8]; FA 0.5 mg/mL): 117.21 ± 1.26 µmol/min
- kcat (HXYN2 [8]; FA 0.5 mg/mL): 4.8837 s⁻¹
- Vmax (HXYN2 [8]; FA 1 mg/mL): 167.22 ± 8.12 µmol/min
- kcat (HXYN2 [8]; FA 1 mg/mL): 6.9678 s⁻¹
